Entries after “also recorded” stand apart in the source; their conditions may differ.
Columns and labels:
[1] = Crystallographic x-ray diffraction (XRD) ice formation assay; assay type: physicochemical; conditions: for reduction of necessary EG concentration while preventing ice formation (ice ring scores): XRD, EG 15-30% (v/v), peptoid 1 and 5 mg/mL
Experimental: In order to increase the throughput of library analysis, a crystallographic x-ray diffraction (XRD) technique was used to evaluate ice crystal formation. For these experiments, the compounds named “Compound 2,” “Compound 8,” “Compound 10,” “Compound 11,” “Compound 12,” “Compound 13,” and “Compound 58” were tested. Compound 58 is similar to Compound 12, except that an arginine amino acid has been appended to the N-terminal end.
For these experiments, EG concentrations between 15% and 30% (v/v) were used. Typically, EG, DMSO, and other cryoprotectants are used during XRD sample analysis at concentrations of 35-40% (v/v) to vitrify solutions and avoid diffraction interference from ice crystals. Concentrations of 1 and 5 mg/mL of the peptoid and peptoid-peptide compounds were used. FIGS. 3A, 3B, and 3C illustrate exemplary XRD data under conditions of complete vitrification, partial vitrification with the presence of cubic ice, and freezing ([…]), respectively. FIG. 3D provides ice rings scores for a variety of EG concentrations and two concentrations of Compounds 2, 8, and 12.
“IceRing1” and “IceRing2” refer to ice formation scores, which range between 0 (no ice formation) and 15 (large ice formation).
The sample containing Compound 12 at a concentration of 5 mg/mL (0.5% (w/v)) and EG at a concentration of 17.5% (v/v) in water was ice-free after flash freezing. […] In the figures, black spots and rings represent ice crystals.

[2] = Larger volume flash freeze, rewarming and −20° C. storage assay; assay type: physicochemical; conditions: 22.5% EG
Experimental: In order to test the usefulness of compositions of the present invention at larger scales, experiments were performed using solution volumes that are similar to volumes used for standard egg and stem cell preservation. For these experiments, two samples, one containing 22.5% EG and buffer only, and another containing 22.5% EG and 5 mg/ml (0.5% w/v) of Compound 12 and buffer, were flash frozen in liquid nitrogen. […] The rewarming of the solutions in a 37° C. water bath led to an unexpected and beneficial result. The Compound 12 solution bypassed devitrification in less than 2 seconds upon rewarming (FIG. 6B, right), whereas chunks of ice were seen floating in the control sample (FIG. 6B, left) after 20 seconds. Condensation was seen on each of the tubes because the tubes were actually still much below room temperature.

HEK 293 cell line = assay: Cytotoxicity assay (MTT); assay type: cell-based, human
Experimental: A Tecan Genesis Robotic Workstation was used to prepare solutions in 96- and 384-well plates. Solutions contained culture media, buffers, a cryoprotectant composition of the present invention (Compound 12) or DMSO. Solutions were adjusted to the desired pH. Serial dilutions were performed to obtain solutions containing various concentrations of Compound 12 and DMSO. Control experiments were performed using only culture media.
For these experiments, cells were seeded at low density (i.e., 10% confluence), exposed to solutions containing Compound 12 or DMSO, and placed in a 37° C. incubator. The cells were allowed to grow until control cells that were treated only with empty vehicle approached 70% confluence (typically about 3 to 5 days). Assessment for compound cytotoxicity was via MTT assay.

HEK 293 cells = assay: Cryopreservation assay, flash freezing in liquid nitrogen, Calcein AM viability; assay type: cell-based, human
Experimental: Initial cryopreservation assays were performed using very simple solutions, with and without the addition of Compound 12, in order to minimize confounding outside factors. For this first set of experiments, two sample solutions were prepared. The first sample solution contained simple buffer and ethylene glycol (EG) at a concentration of 22.5% (v/v), and the second sample solution contained simple buffer, EG (22.5% (v/v)), and 5 mg/mL (0.5% (w/v)) of Compound 12.
HEK 293 cells were grown until 70% confluent, then treated with trypsin to remove adhesion proteins and yield free floating cells. Cells were counted using a hemocytometer and sample cell concentrations were adjusted to final concentrations of 10,000 cells per microliter. Cells were then compressed into tight pellets by centrifugation, and each sample was subsequently mixed with 20 μL of one of the sample solutions. Samples were then flash frozen by immersion in liquid nitrogen, followed by rewarming in a 37° C. water bath. After the freeze-thaw process, cells were suspended in a 400× volume of culture media for recovery. The positive control sample was treated with culture media at 37° C. and not subjected to the freeze-thaw process. The negative control sample was treated with culture media only during the freeze-thaw process. After recovery, cells were stained with Calcein AM for 30 minutes and cell viability was measured using a fluorescence plate reader.
A second set of experiments was performed to evaluate the cryopreservation potential of a formulation that contained 5 mg/mL of Compound 12 plus a mixture of glycols, disaccharides, and a general buffer. Post-thaw survival following vitrification in liquid nitrogen was evaluated as described above.

[3] = MilliQ water, slow cooled, −20° C., one hour; peptoid 9 mM, EG 160 mM
Experimental: In this experiment, four water-based samples were prepared in capillary tubes containing MilliQ purified water. One sample contained only water, and another sample contained 160 mM ethylene glycol (EG). The other two samples each contained a peptoid polymer at 9 mM. One of the peptoid polymer samples contained the peptoid polymer called “Compound 1,” while the other sample contained the peptoid polymer called “Compound 10.” The sequences of the peptoid polymers are as follows:
After sample preparation, all samples were slow cooled and incubated at −20° C. on a Peltier cooled plate. After one hour, samples were removed and immediately photographed using a digital camera attached to a 180× Stereo Zoom microscope (FIG. 2A).

**Q.** Which “reduction of necessary EG concentration while preventing ice formation (ice ring scores)” value (“reduction” below) [1] does the source give for `CCC(C)NCC(=O)N(CC(=O)N(CC(=O)N(CC(=O)N(CC(=O)N(CC(=O)N(CC(=O)N(CC(=O)N(CC(=O)N(CC(N)=O)CC(C)O)C(C)CC)C(C)CC)C(C)CC)CC(C)O)CC(C)O)CC(C)O)C(C)CC)C(C)CC` (stereo not drawn) [Compound 2, Nsb-Nsb-Nsb-Nhp-Nhp-Nhp-Nsb-Nsb-Nsb-Nhp] here?
**A.** significantly reduced necessary EG concentrations while preventing ice formation

**Q.** For `CCC(C)NCC(=O)N(CC(=O)N(CC(=O)N(CC(=O)N(CC(=O)N(CC(=O)N(CC(=O)N(CC(=O)N(CC(=O)N(CC(N)=O)CC(C)O)CC(C)O)CC(C)O)C(C)CC)CC(C)O)CC(C)O)CC(C)O)CC(C)O)CC(C)O` (stereo not drawn) [Compound 8, Nsb-Nhp-Nhp-Nhp-Nhp-Nhp-Nsb-Nhp-Nhp-Nhp], which “reduction” value [1] is on record?
**A.** significantly reduced necessary EG concentrations while preventing ice formation

**Q.** With `CCC(C)NCC(=O)N(CC(=O)N(CC(=O)N(CC(=O)N(CC(=O)N(CC(=O)N(CC(=O)N(CC(=O)N(CC(=O)N(CC(N)=O)C(C)CC)C(C)CC)CC(C)O)CC(C)O)C(C)CC)C(C)CC)CC(C)O)CC(C)O)C(C)CC` (stereo not drawn) [Compound 12, Nsb-Nsb-Nhp-Nhp-Nsb-Nsb-Nhp-Nhp-Nsb-Nsb] as the compound, how does the “ice formation after flash freezing” value ([1]; 5 mg/mL (0.5% (w/v)) with EG 17.5% (v/v) in water, stream of liquid nitrogen vapor) read?
**A.** ice-free

**Q.** What about the “anti-icing effect in comparison to EG at the same molar concentration” value ([1]; 5 mg/mL with EG 17.5% (v/v)) of the same compound?
**A.** 500 times

**Q.** What about the “reduction” value [1] of the same compound?
**A.** significantly reduced necessary EG concentrations while preventing ice formation

**Q.** What about the “vitrification on flash freezing in liquid nitrogen” value ([2]; buffer, 5 mg/ml (0.5% w/v)) of the same compound?
**A.** complete vitrification with no ice formation; also recorded: vitrified

**Q.** What about the “state after overnight in −20° C. freezer” value ([2]; 100 μL, 5 mg/ml) of the same compound?
**A.** remained unfrozen

**Q.** What about the “toxicity at the concentration that prevents ice formation” value (HEK 293 cell line; 0.5% w/v) of the same compound?
**A.** did not show toxicity

**Q.** What about the “toxicity at four times the ice-preventing concentration” value (HEK 293 cell line; four times greater than 0.5% w/v) of the same compound?
**A.** did not show significant toxicity

**Q.** What about the “toxicity compared with culture media alone” value (HEK 293 cell line; serial dilutions, 37° C., about 3 to 5 days) of the same compound?
**A.** did not significantly deviate from the that of culture media alone

**Q.** What about the “vitrification of the cell sample during the freezing process” value (HEK 293 cells; buffer, EG 22.5% (v/v), 5 mg/mL, liquid nitrogen) of the same compound?
**A.** complete vitrification without ice formation

**Q.** And the “cell survival compared with EG alone” value (HEK 293 cells; buffer, EG 22.5% (v/v), 5 mg/mL, viability 12 hours post-thaw)?
**A.** greatly improved cell survival

**Q.** What about the “post-thaw survival of the cells” value (HEK 293 cells; vitrified with liquid nitrogen, viability 16 hours post-thaw, Compound 12 at 5 mg/mL plus glycols, disaccharides, general buffer) of the same compound?
**A.** 98%

**Q.** With `C[S+](C)[O-]` [DMSO, dimethyl sulfoxide, reference compound] as the compound, how does the “concentration at which warm survival for an extended period was not allowed” value (HEK 293 cell line; 37° C.) read?
**A.** above 0.5 % (v/v)

**Q.** With `OCCO` [EG, ethylene glycol] as the compound, how does the ice crystal formation [3] read?
**A.** significant ice crystal formation

Source: patent publication US11564388B2, “Supercooling methods for preservation of biological samples” (X-Therma, Inc., priority 2017, dated 2023)
